Measurements from US8445030B2 (priority 2009, dated 2013).
“Also recorded” adds a separate entry of the source. Where two headings read alike, the source gives them in different places.

Experiments:
microorganisms = experiment: Antiseptic function of components in CaF2-based formulations (Examples 2-4)
Microbes = experiment: Microbial efficacy and duration of effects of components; conditions: component of the spray of Example 1
[1] = cited from earlier work
[2] = same as normal skin (pH 5.4-5.5)
[3] = component of Example 2 wound gel
[4] = component of Example 4 hand disinfection spray
[5] = component of Example 3 hair gel

## CCO [Ethanol]
microorganisms; [3]
  fast acting antiseptic action: log 6, fast acting
microorganisms; [4]
  fast acting antiseptic action: log 6, fast acting

## O=C(O)CC(O)(CC(=O)O)C(=O)O [Citric acid]
Microbes
  Microbial Efficacy: bactericide, virucide,; also recorded: fungicide

## O=C(O)C=Cc1ccccc1 [Cinnamic acid]
Microbes
  Duration of Effects: short to long
  Microbial Efficacy: bactericide, virucide,; also recorded: fungicide

## CC(C)O [Isopropyl alcohol]
microorganisms; [5]
  fast acting antiseptic action: log 6, fast acting

## OO [H2O2 (hydrogen peroxide), hydrogen peroxide]
Microbes
  Duration of Effects: short (short = within 60 sec up to max 5 min)
  Microbial Efficacy: bactericide, virucide,; also recorded: fungicide
[1]; rat, in vivo, po
  LD 50 Oral on Rats: 2000 mg/kg

## O=C(O)[C@]1(O)C[C@@H](O)[C@@H](O)[C@H](O)C1 [Quinic acid]
Microbes
  Microbial Efficacy: bactericide, virucide,; also recorded: fungicide
[1]; rat, in vivo, po
  LD 50 Oral on Rats: >8000 mg/kg

## [Ca+2].[F-].[F-] [CaF2 (calcium fluoride), calcium fluoride]
Microbes
  Microbial Efficacy: bactericide, virucide,; also recorded: fungicide
microorganisms; [3]
  persistent antiseptic action: log 3, persistent
microorganisms; [5]
  persistent antiseptic action: log 3, persistent
microorganisms; [4]
  persistent antiseptic action: log 3, persistent
[2]
  pH: 5.4
[1]; oral, rats
  LD 50 Oral on Rats: 4500 mg/kg

## [Na+].[O-]Cl [NaOCl (Javel water), NaOCl]
Microbes
  Microbial Efficacy: bactericide, virucide,; also recorded: fungicide
microorganisms; [4]
  fast acting antiseptic action: log 6, fast acting
[1]; oral, rats
  LD 50 Oral on Rats: 2000 mg/kg
